Where “and” joins values, the source holds several entries; their conditions need not be identical. Equal values may be shown once. Where a name gives a salt, the structure may show the parent alone.

We go through three molecules from patent publication US6630473B1, “Anti-inflammatory agents and inhibitors against increase in ocular tension caused by irradiation with lasers, containing 1,4-dihydropyridine derivatives” (Senju Pharmaceutical Co., Ltd., priority 1999, dated 2003).

The subject of assay [1] is intraocular inflammation induced by photocoagulation of iris due to argon laser irradiation. Briefly: Anterior chamber protein concentration (laser flare cell meter) after argon laser irradiation of iris. To be noted: for protein concentration after laser irradiation, Treated eye / protein concentration after laser irradiation, Non-treated eye: mean ± SE (n = 4); for protein concentration after laser irradiation: intravenous 500 μg/500 μl/kg at 30 minutes and immediately before laser irradiation, mean ± standard error (n = 4). Type of assay: in vivo, Male Dutch colored house rabbits. From the text: (§1) The effect of the inventive compound on intraocular inflammation and rise of intraocular pressure induced by photocoagulation of iris due to argon laser irradiation was examined. As regards intraocular inflammation, the anterior chamber protein concentration (photon/msec) was used as an index. Male Dutch colored house rabbits weighing about 2 kg purchased from Fukusaki Rabbit Breeding Cooperative were used for the test, after confirmation of absence of abnormality. The rabbits were raised at temperature of 23±3° C., humidity of 55±10% on a solid feed (the NOSAN GROUP: Labo R Stock, NIHON NOSAN) 100 g a day, allowing free access to tap water. […] The argon laser was irradiated in the middle of both eyes between limbus and the base of iris at 5 sites at the same intervals, under the conditions of size: 200 μm, irradiation time (duration): 0.5 sec, output (power): 0.35 W. To remove the effect of fibrin that occurs after laser irradiation, heparin (1000 U/kg) was intravenously administered. The increase in the anterior chamber protein concentration caused by ophthalmic inflammation was measured with a laser flare cell meter (Kowa Co., Ltd.) immediately before, 30 minutes after and 1 hour after laser irradiation. Nicardipine hydrochloride was intravenously administered at 30 minutes and immediately before laser irradiation by 500 μg/500 μl/kg. Heparin was administered 5 minutes after the first administration of nicardipine hydrochloride. Heparin was administered to the control group at 30 minutes before laser irradiation. Into one eye of the house rabbits was instilled 0.05% and 0.1% iganidipine hydrochloride and 0.1% nicardipine hydrochloride, and into each opposite eye was instilled physiological saline by 10 μl at 30 minutes before laser irradiation. The eye instilled with the test material was taken as the treated eye, and the opposite eye instilled with physiological saline was taken as the non-treated eye. In view of the influence of the test material on the opposite eye, the control eyes were prepared, wherein physiological saline was instilled into one eye, and the other eye was not treated, respectively taken as the control of the treated eye and the control of the non-treated eye. Heparin was intravenously administered immediately after instillation of the test material and physiological saline.

For assay [2], the system named is rise of intraocular pressure induced by photocoagulation of iris due to argon laser irradiation. Briefly: Intraocular pressure (pneumatonograph) after argon laser irradiation of iris. Type of assay: in vivo, Male Dutch colored house rabbits.
Source text: as §1, with “intraocular pressure of” for “increase in”, “both eyes” for “anterior chamber protein concentration caused by ophthalmic inflammation”, “measured” for “measured with a laser flare cell meter (Kowa Co., Ltd.)”, “before” for “before, 30 minutes after”, “0.25, 0.5, 1, 2, 3 and 4 hours” for “1 hour”

Assay [3] concerns prostaglandin E2 (PGE2) induced inflammatory responses in the anterior uveal tissues and rise of intraocular pressure. The settings on record: systemic administration before administration of PGE2; cited from earlier work.
Assay [4] has as its system experimental endophthalmitis induced by photocoagulation of iris by the argon laser. To be noted: literature report; nicardipine by intravenous administration; cited from earlier work.

In the case of `C=CCN1CCN(CC(C)(C)COC(=O)C2=C(C)NC(C)=C(C(=O)OC)C2c2cccc([N+](=O)[O-])c2)CC1.Cl.Cl` (stereo not drawn) [iganidipine hydrochloride, 3-(4-allyl-1-piperazinyl)-2,2-dimethylpropyl methyl 2,6-dimethyl-4-(m-nitrophenyl)-1,4-dihydropyridine-3,5-dicarboxylate dihydrochloride], the “protein concentration after laser irradiation, Treated eye” value in assay [1] (instillation of 0.05% iganidipine hydrochloride 10 μl 30 minutes before laser, time 0 min) was 20.55 ± 5.02 /msec; in assay [1] (instillation of 0.05% iganidipine hydrochloride 10 μl 30 minutes before laser, time 30 min, dihydrochloride), 73.8 /msec and 73.75 ± 8.67 /msec; in assay [1] (instillation of 0.05% iganidipine hydrochloride 10 μl 30 minutes before laser, time 60 min), 284.10 ± 17.03 /msec; in assay [1] (instillation of 0.1% iganidipine hydrochloride 10 μl 30 minutes before laser, time 0 min), 19.18 ± 2.37 /msec; in assay [1] (instillation of 0.1% iganidipine hydrochloride 10 μl 30 minutes before laser, time 30 min, dihydrochloride), 84.7 /msec and 84.70 ± 29.66 /msec; in assay [1] (instillation of 0.1% iganidipine hydrochloride 10 μl 30 minutes before laser, time 60 min), 227.18 ± 10.03 /msec. Besides, the “protein concentration after laser irradiation, Non-treated eye” value in assay [1] (opposite eye (physiological saline) from eye instilled with 0.05% iganidipine hydrochloride, time 0 min) is 11.73 ± 2.97 /msec; in assay [1] (opposite eye (physiological saline) from eye instilled with 0.05% iganidipine hydrochloride, time 30 min) it was 68.53 ± 14.40 /msec; in assay [1] (opposite eye (physiological saline) from eye instilled with 0.05% iganidipine hydrochloride, time 60 min), 313.13 ± 27.06 /msec; in assay [1] (opposite eye (physiological saline) from eye instilled with 0.1% iganidipine hydrochloride, time 0 min), 16.03 ± 2.97 /msec; in assay [1] (opposite eye (physiological saline) from eye instilled with 0.1% iganidipine hydrochloride, time 30 min), 117.33 ± 31.50 /msec; in assay [1] (opposite eye (physiological saline) from eye instilled with 0.1% iganidipine hydrochloride, time 60 min), 244.45 ± 39.46 /msec. The “time to restore to the original intraocular pressure” value worked out at 90 min in assay [2] (eye instilled with 0.05%) and 120 min in assay [2] (eye instilled with 0.1%). For the same molecule, the “rise of intraocular pressure from the initial value” amounted to 6 mmHg in assay [2] (eye instilled with 0.05%, 30 minutes from laser irradiation (FIG. 3)) and 7.5 mmHg in assay [2] (eye instilled with 0.1%, 30 minutes from laser irradiation (FIG. 2)). Further, the “intraocular pressure of opposite (non-treated) eye compared with control group” value in assay [2] (eye instilled with physiological saline opposite to the test-material eye, 3 hours after irradiation) is given as “more significant decrease”.
`COC(=O)C1=C(C)NC(C)=C(C(=O)OCCN(C)Cc2ccccc2)C1c1cccc([N+](=O)[O-])c1` (stereo not drawn) [nicardipine hydrochloride]: in assay [1] (eye instilled with 0.1%, 30 minutes after laser irradiation), the “anterior chamber protein concentration compared with control group” value is on record as “without difference from the control group”. In addition, the “protein concentration after laser irradiation, Treated eye” value in assay [1] (instillation of 0.1% nicardipine hydrochloride 10 μl 30 minutes before laser, time 0 min) was 20.55 ± 5.02 /msec; in assay [1] (instillation of 0.1% nicardipine hydrochloride 10 μl 30 minutes before laser, time 30 min, hydrochloride) it was 184.1 /msec and 184.05 ± 35.1 /msec; in assay [1] (instillation of 0.1% nicardipine hydrochloride 10 μl 30 minutes before laser, time 60 min), 337.23 ± 46.4 /msec. The “protein concentration after laser irradiation” value in assay [1] (time 0 min) was 15.53 ± 0.14 /msec; in assay [1] (time 30 min, hydrochloride), 58.1 /msec and 58.08 ± 18.14 /msec; in assay [1] (time 60 min), 30.85 ± 2.58 /msec. Also, the “protein concentration after laser irradiation, Non-treated eye” value is listed as 11.73 ± 2.97 /msec in assay [1] (opposite eye (physiological saline) from eye instilled with 0.1% nicardipine hydrochloride, time 0 min); 118.93 ± 21.21 /msec in assay [1] (opposite eye (physiological saline) from eye instilled with 0.1% nicardipine hydrochloride, time 30 min); 349.85 ± 23.02 /msec in assay [1] (opposite eye (physiological saline) from eye instilled with 0.1% nicardipine hydrochloride, time 60 min). In assay [2] (eye instilled with 0.1% (FIG. 4)), the “effect on the rise of intraocular pressure after laser irradiation” value is “significant inhibition of the rise of intraocular pressure”. For the same molecule, the intraocular pressure in assay [2] (intravenous administration group, 30 minutes after the irradiation (FIG. 1)) came out at 24.2 mmHg; in assay [2] (intravenous administration group, 1 hour after the irradiation (FIG. 1)), 20.8 mmHg; in assay [2] (intravenous administration group, immediately before laser irradiation (FIG. 1)) it was 30.1 mmHg. For the same molecule, the “time until which the intraocular pressure effect was sustained” value in assay [2] (intravenous administration group, after the irradiation) came to 4 h. The “decrease of intraocular pressure” value in assay [2] (intravenous administration group, at 1 hour after the irradiation versus immediately before laser irradiation) came out at 9.3 mmHg. Also, the “effect on PGE2-induced inflammatory responses and temporary rise of intraocular pressure” value in assay [3] is listed as “inhibits these responses in a dose-dependent manner”. Besides, the “effect on experimental endophthalmitis induced by argon laser photocoagulation of iris” value in assay [4] is on record as “inhibited experimental endophthalmitis”.
On to `COC(=O)C1=C(C#N)NC(C)=C(C(=O)OC(C)C)C1c1cccc([N+](=O)[O-])c1` (stereo not drawn) [nilvadipine], for which, in assay [3], the “effect on PGE2-induced inflammatory responses and temporary rise of intraocular pressure” value was “inhibits these responses in a dose-dependent manner”.
